# Values of other authors as cited in US12239131B2, “Plant growth regulator concentrate and use thereof” (FINE AGROCHEMICALS LIMITED, priority 2018, dated 2025).
row,pKa,Structure (SMILES)
1,1.2,CC1(C)C2CCC1(CS(=O)(=O)O)C(=O)C2 (stereo not drawn) [Camphor sulfonic acid]
2,1.35,"CC(O)(P(=O)(O)O)P(=O)(O)O [HEDP, (1-hydroxyethane-1,1-diyl)bis(phosphonic acid)]"
3,−1.4,"O=S(=O)(O)CCO [HESA, 2-hydroxyethyl sulphonic acid]"
